From patent publication US9827223B2 (priority 2001, dated 2017)
Where two headings read alike, the source gives them in different places.

How the values were obtained:
[1] = design: species or system Sprague Dawley rats; settings: rat, in vivo
VR1eGFP [2] = target: T1, VR1eGFP (Rattus norvegicus, UniProt O35433); assay type: cell-based; settings: 1 nM
T1 construct: expressed in transfected cells; host or cells: Cos7 and HEK293 cells, transient transfection

dorsal root ganglion = tested on: dorsal root ganglion; design: species or system patient; settings: human, in vivo
[3] = target: T2, VR1ε (C-terminal epsilon epitope-tagged vanilloid 1 receptor) (Rattus norvegicus, UniProt O35433); assay type: cell-based
T2 construct: expressed in transfected cells; host or cells: NIH 3T3 cells, G418-selected colony A5, pMTH-VR1ε plasmid

VR1eGFP [4] = target: T1, VR1eGFP; experiment: cell-based; settings: N=3; read-out: ED50 of induced Ca2+ uptake
VR1eGFP-expressing cells = assay type: cell-based
trigeminal ganglion [5] = tested on: trigeminal ganglion; design: species or system Sprague Dawley rats; settings: rat, in vivo
[6] = tested on: C-fiber neurons of the trigeminal ganglion; design: species or system Sprague Dawley rats; settings: rat, in vivo
VR1eGFP [7] = target: T1, VR1eGFP; assay type: cell-based
trigeminal ganglion [8] = assay type: in vivo, Sprague Dawley rats
[9] = design: species or system Sprague Dawley rats; settings: rat, in vivo; remark: listed apart in the source
[10] = rat, in vivo, cited from earlier work
eGFP- and e-tagged VR1 = target: T3, eGFP- and e-tagged VR1 (Rattus norvegicus, UniProt O35433); assay type: binding
T3 construct: expressed in transfected cells; host or cells: Cos7 cells
T3 sequence (O35433 whole entry): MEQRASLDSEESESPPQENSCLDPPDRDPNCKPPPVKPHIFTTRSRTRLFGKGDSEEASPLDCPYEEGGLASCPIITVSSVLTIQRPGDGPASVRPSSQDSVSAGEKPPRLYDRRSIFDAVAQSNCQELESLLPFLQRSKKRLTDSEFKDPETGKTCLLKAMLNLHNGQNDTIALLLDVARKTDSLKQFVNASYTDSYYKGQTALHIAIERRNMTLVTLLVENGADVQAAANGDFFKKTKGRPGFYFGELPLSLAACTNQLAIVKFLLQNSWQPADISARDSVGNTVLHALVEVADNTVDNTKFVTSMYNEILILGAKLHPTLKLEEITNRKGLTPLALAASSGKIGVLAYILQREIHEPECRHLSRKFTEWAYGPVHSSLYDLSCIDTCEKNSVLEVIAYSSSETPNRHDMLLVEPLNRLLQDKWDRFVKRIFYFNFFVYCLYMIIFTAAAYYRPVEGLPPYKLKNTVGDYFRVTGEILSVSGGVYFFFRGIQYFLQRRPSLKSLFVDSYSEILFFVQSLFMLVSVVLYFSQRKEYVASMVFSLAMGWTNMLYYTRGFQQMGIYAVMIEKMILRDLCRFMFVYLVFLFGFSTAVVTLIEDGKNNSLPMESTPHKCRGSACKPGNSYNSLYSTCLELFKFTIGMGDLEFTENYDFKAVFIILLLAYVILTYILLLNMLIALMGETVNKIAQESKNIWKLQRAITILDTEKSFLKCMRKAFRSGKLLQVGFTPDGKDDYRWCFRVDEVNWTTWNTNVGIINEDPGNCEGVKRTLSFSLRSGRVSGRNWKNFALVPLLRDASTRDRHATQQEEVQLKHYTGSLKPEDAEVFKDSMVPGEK

T1 sequence (O35433 whole entry): as above
T2 sequence (O35433 whole entry): as above

C=C(C)[C@]12C[C@@H](C)[C@@]34O[C@](Cc5ccccc5)(O[C@@H]1[C@@H]3C=C(COC(=O)Cc1ccc(O)c(OC)c1)C[C@]1(O)C(=O)C(C)=C[C@@H]41)O2 [RTX, Resiniferatoxin]
mechanical pinch sensitivity [1]: No attenuation | peak [Ca2+]i (VR1eGFP [2]): 500 nM | time to elevation of [Ca2+]i (VR1eGFP [2]): ≤ 10 s | symptoms of chronic pain (dorsal root ganglion): reduction of the symptoms of chronic pain | 45Ca2+-uptake above the base line of non-transfected NIH3T3 cells [3]: > 50 fold | EC50 (VR1eGFP [4]): 0.1 ± 0.05 nM | ER, plasma membrane and mitochondria morphology (VR1eGFP-expressing cells): dramatic fragmentation of the ER | nuclear membrane fragmentation at lower doses (VR1eGFP-expressing cells): slower nuclear membrane fragmentation | mitochondrial reaction (VR1eGFP-expressing cells; 1 nM): mitochondria reacted rapidly | time to bursting of the plasma membrane (VR1eGFP-expressing cells; 1 nM): about 45 minutes | plasma extravasation (trigeminal ganglion [5]): dramatic blockade | fate of CGRP-stained cells in the injected ganglion [6]: killed | currents and capacitance change in non-transfected cells (VR1eGFP [7]): neither evoked currents nor induced a change in capacitance | loss of plasma membrane (VR1eGFP [7]): about 600 μm^2 | receptor desensitization (VR1eGFP [7]): complete desensitization | drop of membrane capacitance of VR1eGFP-transfected cells (VR1eGFP [7]; 125 pM): 6±2.5 pF | eye wipes in the first minute (trigeminal ganglion [8]; n=4): 7±3 wipes | eye wipes in the first minute (trigeminal ganglion [8]; rat, in vivo): no eye wipes | paw withdrawal latency [9]: 18 ± 1.2 s | time without restoration of pain sensitivity (thermal analgesia) ([10]; sc): over 7 days

COc1cc(CNC(=O)CCCC/C=C/C(C)C)ccc1O [capsaicin]
mitochondrial reaction (VR1eGFP-expressing cells; 1 uM): mitochondria reacted rapidly | current induced in voltage-clamped VR1eGFP cells (VR1eGFP [7]): induced a large inward current | thermal analgesia [10]: No thermal analgesia

Oc1cc2c(cc1O)CN(C(=S)NCCc1ccc(Cl)cc1)CCC2 [capsazepine]
effect on VR1eGFP-mediated current (VR1eGFP [7]): attenuated | inhibition of [3H]RTX binding (eGFP- and e-tagged VR1): almost completely inhibited
